In test [1] the test system is Escherichia coli. Put plainly: Bactericidal activity against early exponential phase Escherichia coli assessed as bacterial killing at 6 ug/ml incubated for 6 hrs by time-kill assay. It counts as functional, organism-based. The note with it: dose 6.0 µg/ml.
Test [2] deals with Escherichia coli. The test is described as follows: Bactericidal activity against early exponential phase Escherichia coli assessed as bacterial killing at 6 ug/ml incubated for 12 hrs by time-kill assay. Particulars: dose 6.0 µg/ml. Format: functional, organism-based.
The test system of test [3] is Escherichia coli. Put plainly: Bactericidal activity against late exponential phase Escherichia coli assessed as bacterial killing by measuring bacterial count at 8 ug/ml incubated for 12 hrs by time-kill assay (reference value: 10^8.4 CFU/ml). Format: functional. The note with it: dose 8 µg/ml.

Activity calls are given as the source filed them. No cut-off for these calls is given here.

Consider `CO[C@@]1(NC(=O)C(C(=O)O)c2ccc(O)cc2)C(=O)N2C(C(=O)O)=C(CSc3nnnn3C)CO[C@@H]21` (stereo partly drawn) [MOXALACTAM], for which the outcome in the test on Escherichia coli [1] and in the test on Escherichia coli [2] was Active. The Activity in the test with Escherichia coli [3] is recorded as 1 10^4CFU/ml.
